Molecular target: T1, human SNP variant (S309L) of GPR119 (Homo sapiens, UniProt Q8TDV5, S309L)
T1 construct: expressed in transfected cells; host or cells: HEK293 Flp-In (Invitrogen)
T1 sequence (Q8TDV5 1-335 S309L): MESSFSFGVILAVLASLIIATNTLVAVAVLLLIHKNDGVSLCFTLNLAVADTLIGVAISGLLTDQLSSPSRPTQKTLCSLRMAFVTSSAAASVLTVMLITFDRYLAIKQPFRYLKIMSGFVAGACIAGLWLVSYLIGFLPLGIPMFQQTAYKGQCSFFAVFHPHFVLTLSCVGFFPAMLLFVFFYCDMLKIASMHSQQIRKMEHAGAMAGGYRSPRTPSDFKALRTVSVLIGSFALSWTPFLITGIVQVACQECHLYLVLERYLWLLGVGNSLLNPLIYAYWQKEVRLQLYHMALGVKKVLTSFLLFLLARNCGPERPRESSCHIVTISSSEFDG
Experiment: GPR119 signaling, cAMP homogenous time resolved fluorescence (HTRF) assay
Type: cell-based
Conditions: HEK293 Flp-In cells stably transfected with human GPR119 (S309L), HTRF kit
Source text: Measurement of GPR119 Signaling Using a Cyclic AMP (cAMP) Homogenous Time Resolved Fluorescence (HTRF) Assay
Chinese hamster ovary (CHO) cell lines stably transfected with the permissive guanine nucleotide binding protein alpha 15 (Gals) and murine GPR119 were maintained in DMEM media containing FBS, penicillin-streptomycin, puromycin, and G418 (geneticin). Alternatively, human embryonic kidney (HEK)293 Flp-In cells (Invitrogen, Carlsbad, Calif.) were stably transfected with a human SNP variant (S309L) of GPR119 and maintained in DMEM media containing FBS, penicillin-streptomycin, and hygromycin. Agonist activation of the GPR119 receptor was measured in receptor transfected cells described above, treated with compounds of this invention, using a commercial homogenous time resolved fluorescence (HTRF) kit for measurement of cAMP (CisBio, Bedford, Mass.). The assay was performed in 96-well half-volume plates (murine) or 384-well plates (human) following the manufacturers instructions. Briefly, suspended cells were incubated with a dose titration of test compound at RT for 60 min, lysed, and incubated with HTRF reagents for an additional 60 min. The plate was read using an Envision multilabel reader (Perkin Elmer) adjusted to read time resolved fluorescence and the cAMP concentrations were extrapolated from a cAMP calibration curve. […] The concentration of test compound required to stimulate a half-maximal response (EC50), and efficacy as compared to an internal agonist control, was determined from a sigmoidal 4-parameter curve fit of the resulting plot of normalized activity versus compound concentration.

| SMILES | EC50 [nM] |
| --- | --- |
| CS(=O)(=O)c1ccc(COC[C@H]2C[C@@H]2C2CCN(C(=O)OC3CC3)CC2)cc1F [Example 15, cyclopropyl 4-((1R,2S)-2-(((3-fluoro-4-(methylsulfonyl)benzyl)oxy)methyl)cyclopropyl)piperidine-1-carboxylate] | 2.4 |
| CS(=O)(=O)c1ccc(COC[C@H]2C[C@@H]2C2CCN(C(=O)OC3CC3)CC2)cc1 [Example 16, cyclopropyl 4-((1R,2S)-2-(((4-(methylsulfonyl)benzyl)oxy)methyl)cyclopropyl)piperidine-1-carboxylate] | 5.7 |
| CC1(OC(=O)N2CCC([C@H]3C[C@@H]3COCc3ccc(S(C)(=O)=O)c(F)c3)CC2)CC1 [Example 17, 1-methylcyclopropyl 4-((1R,2S)-2-(((3-fluoro-4-(methylsulfonyl)benzyl)oxy)methyl)cyclopropyl)piperidine-1-carboxylate] | 4.6 |
| CC1(OC(=O)N2CCC([C@H]3C[C@@H]3COCc3ccc(S(C)(=O)=O)cc3)CC2)CC1 [Example 18, 1-methylcyclopropyl 4-((1R,2S)-2-(((4-(methylsulfonyl)benzyl)oxy)methyl)cyclopropyl)piperidine-1-carboxylate] | 6.4 |
| CC(C)OC(=O)N1CCC([C@H]2C[C@@H]2COCc2ccc(S(C)(=O)=O)cc2)CC1 [Example 19, isopropyl 4-((1R,2S)-2-(((4-(methylsulfonyl)benzyl)oxy)methyl)cyclopropyl)piperidine-1-carboxylate] | 9.1 |
| CC(C)OC(=O)N1CCC([C@H]2C[C@@H]2COCc2ccc(S(C)(=O)=O)c(F)c2)CC1 [Example 20, isopropyl 4-((1R,2S)-2-(((3-fluoro-4-(methylsulfonyl)benzyl)oxy)methyl)cyclopropyl)piperidine-1-carboxylate] | 5.8 |
| CC(C)c1noc(N2CCC([C@H]3C[C@@H]3COCc3ccc(S(C)(=O)=O)cc3)CC2)n1 [Example 21, 3-isopropyl-5-(4-((1R,2S)-2-((4-(methylsulfonyl)benzyloxy)methyl)cyclopropyl)piperidin-1-yl)-1,2,4-oxadiazole] | 3.8 |
| CC(C)c1noc(N2CCC([C@H]3C[C@@H]3COCc3ccc(S(C)(=O)=O)c(F)c3)CC2)n1 [Example 22, 5-(4-((1R,2S)-2-(((3-fluoro-4-(methylsulfonyl)benzyl)oxy)methyl)cyclopropyl)piperidin-1-yl)-3-isopropyl-1,2,4-oxadiazole] | 3.2 |
| Cc1nnc(-c2ccc(OCC[C@@H]3C[C@H]3C3CCN(c4ncc(Cl)cn4)CC3)cc2F)o1 [Example 64, 2-(4-(2-((1S,2S)-2-(1-(5-chloropyrimidin-2-yl)piperidin-4-yl)cyclopropyl)ethoxy)-2-fluorophenyl)-5-methyl-1,3,4-oxadiazole] | 8.4 |
| CS(=O)(=O)c1ccc(OCC[C@@H]2C[C@H]2C2CCN(c3nc(C4CC4)no3)CC2)nc1 [Example 112, 3-cyclopropyl-5-(4-((1S,2S)-2-(2-((5-(methylsulfonyl)pyridin-2-yl)oxy)ethyl)cyclopropyl)piperidin-1-yl)-1,2,4-oxadiazole] | 6.1 |
| CCCc1noc(N2CCC([C@@H]3C[C@H]3CCOc3ccc(S(C)(=O)=O)cn3)CC2)n1 [Example 113, 5-(4-((1S,2S)-2-(2-((5-(methylsulfonyl)pyridin-2-yl)oxy)ethyl)cyclopropyl)piperidin-1-yl)-3-propyl-1,2,4-oxadiazole] | 7.9 |
| CS(=O)(=O)c1ccc(OCC[C@@H]2C[C@H]2C2CCN(c3nc(C4CCC4)no3)CC2)nc1 [Example 114, 3-cyclobutyl-5-(4-((1S,2S)-2-(2-((5-(methylsulfonyl)pyridin-2-yl)oxy)ethyl)cyclopropyl)piperidin-1-yl)-1,2,4-oxadiazole] | 4.8 |
| COCc1cnc(N2CCC([C@H]3C[C@@H]3CCNc3ncc(-n4cnnn4)cn3)CC2)nc1 [Example 124, N-(2-((1R,2S)-2-(1-(5-(methoxymethyl)pyrimidin-2-yl)piperidin-4-yl)cyclopropyl)ethyl)-5-(1H-tetrazol-1-yl)pyrimidin-2-amine] | 5.2 |
| CS(=O)(=O)c1ccc(OCC[C@@]2(C#N)C[C@@H]2C2CCN(c3ncc(Cl)cn3)CC2)cc1 [Example 127, (1S,2R)-2-(1-(5-chloropyrimidin-2-yl)piperidin-4-yl)-1-(2-(4-(methylsulfonyl)phenoxy)ethyl)cyclopropanecarbonitrile] | 3 |
| CS(=O)(=O)c1ccc(NCC[C@H]2C[C@@H]2C2CCN(c3ncc(Cl)cn3)CC2)cc1 [Example 128, N-(2-((1R,2S)-2-(1-(5-chloropyrimidin-2-yl)piperidin-4-yl)cyclopropyl)ethyl)-4-(methylsulfonyl)aniline] | 6.7 |
